Test results reported in publication PMC7901646, “Pyrrolo[2′,3′:3,4]cyclohepta[1,2-d][1,2]oxazoles, a New Class of Antimitotic Agents Active against Multiple Malignant Cell Types” (Journal of Medicinal Chemistry, 2020).

How the values were obtained:
[1] = test system: VL51 idelalisib-resistant; experiment: MTT cell proliferation, lymphoma; type: cell-based; conditions: Homo sapiens, 72 h, of untreated cells, read-out: Proliferating cells (%)
Experimental: (§1) All compounds were further tested at the concentration of 1 μM on four cell lines derived from distinct lymphoma histotypes, plus two with secondary resistance to the PI3Kδ inhibitor idelalisib[51] or to the BTK inhibitor ibrutinib.[52] […] For comparison, the same experiments were conducted using compound 3, but the response to it was minimal, and thus it was not considered further.
(§2) Established human cell lines derived from germinal center B-cell (GCB) (SU-DHL-10), activated B-cell (ABC) (HBL1) diffuse large B-cell lymphoma (DLBCL), mantle cell lymphoma (MCL) (MINO), splenic marginal zone lymphoma (SMZL) (parental VL51, VL51 idelalisib resistant clone, VL51 ibrutinib resistant clone) were cultured in culture RPMI-1640 media supplemented with fetal bovine serum (10%), penicillin–streptomycin–neomycin (∼5,000 units of penicillin, 5 mg of streptomycinm and 10 mg of neomycin/mL, Sigma), and L-glutamine (1%). Vincristine sulfate was purchased from Sigma-Aldrich. Cell line identities were confirmed by CellCheck test (IDEXX, BioResearch, Ludwigsburg, Germany). All compounds were dissolved in dimethyl sulfoxide to obtain a stock concentration of 10 mM.
(§3) The antiproliferative activity of all compounds was assessed by using the 3-(4.5-dimethylthiazolyl-2)-2,5-diphenyltetrazolium bromide (MTT) test. Cells were seeded in 96-well plates (nontissue culture treated) at a density of 1 × 10^5 cells/mL and treated with a single concentration of 1 μM for 72 h. […] In this case, cells were treated in triplicate with serially diluted compounds in the appropriate tissue culture medium at a range of 40–10 000 nM. Cells were incubated for 72 h at 37 °C, 5% CO2. Wells containing medium only were included on each plate and served as blanks for absorbance readings. MTT (Sigma, Buchs, Switzerland) was prepared as a 5 mg/mL stock solution in phosphate buffered saline (PBS) and filter-sterilized. MTT solution (22 μL) was added to each well, and tissue culture plates were incubated at 37 °C for 4 h. Cells were then lysed with 25% sodium dodecyl sulfate lysis buffer, and absorbance was read at 570 nm using a Beckman Coulter-AD340 plate reader.

MINO (MCL) = experiment: MTT cell proliferation, lymphoma; type: cell-based; conditions: Homo sapiens, 72 h; for activity at 1 µM: of untreated cells, read-out: Proliferating cells (%)
Experimental: as §1, §2, §3

SU-DHL-10 (GCB DLBCL) = experiment: MTT cell proliferation, lymphoma; type: cell-based; conditions: Homo sapiens, SU-DHL10, 72 h; for activity at 1 µM: of untreated cells, read-out: Proliferating cells (%)
Experimental: as §1, §2, §3

HBL1 (ABC DLBCL) = experiment: MTT cell proliferation, lymphoma; type: cell-based; conditions: Homo sapiens, 72 h; for activity at 1 µM: of untreated cells, read-out: Proliferating cells (%)
Experimental: as §1, §2, §3

VL51 ibrutinib-resistant = experiment: MTT cell proliferation, lymphoma; type: cell-based; conditions: Homo sapiens, 72 h, of untreated cells, read-out: Proliferating cells (%)
Experimental: as §1, §2, §3

VL51 (MZL) = experiment: MTT cell proliferation, lymphoma; type: cell-based; conditions: Homo sapiens, 72 h; for activity at 1 µM: of untreated cells, read-out: Proliferating cells (%)
Experimental: as §1, §2, §3

bovine brain tubulin = bovine brain tubulin (Bos taurus, UniProt P81947+Q6B856); experiment: Inhibition of tubulin assembly (turbidimetry); type: biochemical; conditions: 9 μM (0.9 mg/mL) tubulin, 20 min at 30 °C; read-out: inhibition of tubulin assembly IC50 ± SD
tubulin colchicine site = tubulin colchicine site (Bos taurus, UniProt P81947+Q6B856); experiment: Inhibition of [3H]colchicine binding to tubulin; conditions: read-out: inhibition of colchicine binding % inhibition ± SD
Sequence of tubulin colchicine site (Q6B856 whole entry): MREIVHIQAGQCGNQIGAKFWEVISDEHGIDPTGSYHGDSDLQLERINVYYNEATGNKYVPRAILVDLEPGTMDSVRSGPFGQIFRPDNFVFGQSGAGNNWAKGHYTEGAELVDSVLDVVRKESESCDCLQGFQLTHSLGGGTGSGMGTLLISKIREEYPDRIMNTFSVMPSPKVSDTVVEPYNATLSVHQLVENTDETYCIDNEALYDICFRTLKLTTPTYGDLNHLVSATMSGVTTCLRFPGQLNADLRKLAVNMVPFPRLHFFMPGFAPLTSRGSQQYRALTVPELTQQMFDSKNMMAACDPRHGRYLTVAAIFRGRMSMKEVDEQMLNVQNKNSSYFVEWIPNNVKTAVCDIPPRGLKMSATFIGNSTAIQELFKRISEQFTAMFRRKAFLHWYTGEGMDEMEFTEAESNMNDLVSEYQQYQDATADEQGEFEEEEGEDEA
Sequence of tubulin colchicine site (P81947 whole entry): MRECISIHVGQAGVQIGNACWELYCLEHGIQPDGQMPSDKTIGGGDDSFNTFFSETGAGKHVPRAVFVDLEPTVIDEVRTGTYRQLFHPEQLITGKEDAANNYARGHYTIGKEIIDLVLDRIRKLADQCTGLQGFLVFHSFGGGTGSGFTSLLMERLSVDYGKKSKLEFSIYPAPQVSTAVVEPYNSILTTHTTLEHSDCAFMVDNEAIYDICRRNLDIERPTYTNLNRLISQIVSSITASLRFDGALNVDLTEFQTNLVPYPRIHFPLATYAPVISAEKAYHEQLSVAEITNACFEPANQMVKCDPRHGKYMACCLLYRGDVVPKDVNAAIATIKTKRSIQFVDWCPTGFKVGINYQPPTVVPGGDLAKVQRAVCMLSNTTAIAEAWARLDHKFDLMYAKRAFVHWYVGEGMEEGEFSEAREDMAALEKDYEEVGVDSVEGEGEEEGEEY

Sequence of bovine brain tubulin (Q6B856 whole entry): as the sequence (Q6B856 whole entry) above
Sequence of bovine brain tubulin (P81947 whole entry): as the sequence (P81947 whole entry) above

Compound	activity at 1 µM [1] [%]	activity at 1 µM (MINO (MCL)) [%]	activity at 1 µM (SU-DHL-10 (GCB DLBCL)) [%]	activity at 1 µM (HBL1 (ABC DLBCL)) [%]	activity at 1 µM (VL51 ibrutinib-resistant) [%]	activity at 1 µM (VL51 (MZL)) [%]	IC50 (MINO (MCL); MTT) [µM]	IC50 (SU-DHL-10 (GCB DLBCL); MTT) [µM]	IC50 (HBL1 (ABC DLBCL); MTT) [µM]	IC50 (VL51 (MZL); MTT) [µM]	IC50 (bovine brain tubulin) [µM]	inhibition at 5 µM (tubulin colchicine site) [%]
O=S(=O)(c1ccccc1)n1ccc2c1-c1oncc1CCC2 [Compound 51, 9-(Phenylsulfonyl)-4,5,6,9-tetrahydropyrrolo[2′,3′:3,4]cyclohepta[1,2-d][1,2]oxazole]	118	104	110	118	121	88.1	–	–	–	–	–	–
Cn1ccc2c1-c1oncc1CCC2 [Compound 52, 9-Methyl-4,5,6,9-tetrahydropyrrolo[2′,3′:3,4]cyclohepta[1,2-d][1,2]oxazole]	107	104	70.2	101	100	87.4	–	–	–	–	–	–
CCOC(=O)c1c(Cl)c2c(n1Cc1ccccc1OC)-c1oncc1CCC2 [Compound 71, Ethyl 7-Chloro-9-(2-methoxybenzyl)-4,5,6,9-tetrahydropyrrolo[2′,3′:3,4]cyclohepta[1,2-d][1,2]oxazole-8-carboxylate]	52.2	55.9	58.2	97	56.2	58.8	3.4	2.2	> 5	2.4	–	–
COc1cc(Cn2ccc3c2-c2oncc2CCC3)cc(OC)c1OC [Compound 59, 9-(3,4,5-Trimethoxybenzyl)-4,5,6,9-tetrahydropyrrolo[2′,3′:3,4]cyclohepta[1,2-d][1,2]oxazole]	112	99	94.6	114	92.1	97.6	–	–	–	–	–	–
COc1ccc(Cn2ccc3c2-c2oncc2CCC3)cc1 [Compound 56, 9-(4-Methoxybenzyl)-4,5,6,9-tetrahydropyrrolo[2′,3′:3,4]cyclohepta[1,2-d][1,2]oxazole]	127	109	74.6	123	110	110	–	–	–	–	8.2 ± 0.5	–
CCOC(=O)c1c(Cl)c2c(n1Cc1cccc(OC)c1)-c1oncc1CCC2 [Compound 72, Ethyl 7-Chloro-9-(3-methoxybenzyl)-4,5,6,9-tetrahydropyrrolo[2′,3′:3,4]cyclohepta[1,2-d][1,2]oxazole-8-carboxylate]	128	110	76.9	105	103	107	–	–	–	–	–	–
COc1cc(Cn2ccc3c2-c2oncc2CCC3)cc(OC)c1 [Compound 58, 9-(3,5-Dimethoxybenzyl)-4,5,6,9-tetrahydropyrrolo[2′,3′:3,4]cyclohepta[1,2-d][1,2]oxazole]	78.4	101	72.4	114	73	84	–	–	–	–	5.7 ± 1	25 ± 3
CCOC(=O)c1cc2c(n1Cc1cc(OC)ccc1OC)-c1oncc1CCC2 [Compound 65, Ethyl 9-(2,5-Dimethoxybenzyl)-4,5,6,9-tetrahydropyrrolo[2′,3′:3,4]cyclohepta[1,2-d][1,2]oxazole-8-carboxylate]	96.4	107	71.6	111	94	86.2	–	–	–	–	–	–
CCOC(=O)c1cc2c(n1Cc1ccccc1)-c1oncc1CCC2 [Compound 61, Ethyl 9-Benzyl-4,5,6,9-tetrahydropyrrolo[2′,3′:3,4]cyclohepta[1,2-d][1,2]oxazole-8-carboxylate]	117	106	65.2	124	118	93.3	–	–	–	–	–	–
